Measured values from ChEMBL document CHEMBL3639063, “Heterocyclic compounds containing a pyrrolopyridine or benzimidazole core” (2015).

Target: Ribosomal protein S6 kinase alpha-3 (Homo sapiens, UniProt P51812)
Assay: Kinase Glo Assay: Human RSK2 protein, purchased from Invitrogen, is used to measure kinase activity utilizing Kinase Glo Plus (Promega) a homogeneous assay technology, which uses a luciferin-luciferase based ATP detection reagent to quantify residual ATP. The assay is performed using 0.75 nM His-RSK2, 0.75 uM ATP and 1.0 uM S6 Kinase/RSK Substrate Peptide 1 (Upstate, catalog #12-124), in assay buffer consisting of 25 mM HEPES, pH 7.5, 10 mM MgCl2, 5 mM MnCl2, 50 mM KCl, 0.2% BSA, 0.01% CHAPS, 100 uM Na3VO4, 0.5 mM DTT, and 1% DMSO. Solutions of test compounds at various concentrations are prepared by 1:3 fold serial dilution of a 1 mM solution of compound in DMSO. The DMSO solutions are further diluted with assay buffer to a final concentration of DMSO of 5%.The assay is performed in a 384 well, white, non-binding plate (Corning, catalogue #3574). Solutions of test compounds (10 uL) are transferred to a dry assay plate, followed by addition of 20 uL kinase.

Sequence of Ribosomal protein S6 kinase alpha-3 (P51812 whole entry): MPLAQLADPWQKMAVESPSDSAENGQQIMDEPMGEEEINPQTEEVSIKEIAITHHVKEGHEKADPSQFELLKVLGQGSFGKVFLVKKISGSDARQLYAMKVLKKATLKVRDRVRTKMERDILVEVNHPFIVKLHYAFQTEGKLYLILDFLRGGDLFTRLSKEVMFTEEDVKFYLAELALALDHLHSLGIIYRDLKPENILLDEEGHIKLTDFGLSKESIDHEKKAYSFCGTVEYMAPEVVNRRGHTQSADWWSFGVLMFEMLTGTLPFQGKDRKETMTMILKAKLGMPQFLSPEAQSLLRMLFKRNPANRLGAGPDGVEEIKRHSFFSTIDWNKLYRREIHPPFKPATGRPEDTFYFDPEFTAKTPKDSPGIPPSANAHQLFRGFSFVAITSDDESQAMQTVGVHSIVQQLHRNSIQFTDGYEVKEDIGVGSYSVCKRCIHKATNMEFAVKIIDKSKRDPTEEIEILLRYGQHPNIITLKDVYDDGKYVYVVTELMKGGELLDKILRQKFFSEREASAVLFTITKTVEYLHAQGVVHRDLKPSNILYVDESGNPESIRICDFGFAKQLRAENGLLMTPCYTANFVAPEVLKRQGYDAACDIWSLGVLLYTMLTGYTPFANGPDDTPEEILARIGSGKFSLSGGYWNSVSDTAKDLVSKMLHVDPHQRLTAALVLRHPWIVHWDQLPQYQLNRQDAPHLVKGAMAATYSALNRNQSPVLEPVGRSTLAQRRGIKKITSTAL

IC50 [µM] | SMILES
0.175 | CC1(C)CNC(=O)c2cc3ccc(C(=O)Nc4cc(C(C)(C)C)on4)nc3n2C1
0.017 | O=C(Nc1cccc(-c2c[nH]cn2)c1)c1ccc2cc3n(c2n1)CCCNC3=O
